This note sets out measurements from PMC4891693, “Discovery of prenylated flavonoids with dual activity against influenza virus and Streptococcus pneumoniae” (Scientific Reports, 2016).

The structures appear in SMILES notation. Values after ≈ are worked out from the molar mass of the structure shown. Like-named read-outs stand apart in the source and are kept apart here. Where only a bound is given, the exact number is not on record here.

For data set [1], the system named is human erythrocytes. The data set is described as follows: Interference with hemagglutination in the viral HA assay.
In data set [2] the test system is IAV Jena/8178/2009 (8178/09). In words: microbe, parasite or virus in culture. It counts as cell-based, Influenza A virus. The following applies: Influenza A virus, MDCK, 48 h; read-out: IC50 of CPE IAV 8178/09.
Data set [3] has as its system NA of S. pneumoniae DSM20566 (precipitated bacterial proteins). The data set is described as follows: Hemagglutination (HA)-based NA inhibition assay, bacterial. It counts as biochemical, Streptococcus pneumoniae. The following applies: pure compounds; total protein of DSM20566; human erythrocytes; highest tested 100 μM. From the text:
Inhibition of pneumococcal NAs circumvents hemagglutination.

The test system of data set [4] is human erythrocytes.
Data set [5] deals with human erythrocytes. The source holds these as a separate data set.
A short description of data set [6]: in vitro. The following applies: human.
For data set [7], the target named is influenza virus A/WSN/33 NA (Influenza A virus, UniProt P03470). In words: biochemical.
Data set [8] in a line: in vitro. The following applies: dog.
The test system of data set [9] is influenza virus A/WSN/33. In words: microbe, parasite or virus in culture. The following applies: WSN, MDCK, read-out: IC50 of CPE assay (A/WSN/33). Type of data set: cell-based.
The mark [10] stands for this setting: pure compounds, human erythrocytes, 2 h at 4 °C.

Sequence of influenza virus A/WSN/33 NA (P03470 whole entry, looked up): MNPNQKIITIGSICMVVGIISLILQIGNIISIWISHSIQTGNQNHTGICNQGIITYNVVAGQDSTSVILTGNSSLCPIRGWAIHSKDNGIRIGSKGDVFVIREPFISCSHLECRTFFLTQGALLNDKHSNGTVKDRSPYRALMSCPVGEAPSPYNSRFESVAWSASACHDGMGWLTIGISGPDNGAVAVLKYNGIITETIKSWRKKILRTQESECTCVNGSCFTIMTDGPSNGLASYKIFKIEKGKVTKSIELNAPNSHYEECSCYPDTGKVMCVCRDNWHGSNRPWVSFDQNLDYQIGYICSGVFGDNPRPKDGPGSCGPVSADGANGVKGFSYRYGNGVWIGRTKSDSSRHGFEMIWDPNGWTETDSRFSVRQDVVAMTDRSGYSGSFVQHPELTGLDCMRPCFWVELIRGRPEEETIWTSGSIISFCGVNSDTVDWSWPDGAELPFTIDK

Take `CC(C)=CCc1c(O)cc(O)c2c1O[C@@H](c1ccc(O)cc1)[C@H](O)C2=O` (relative stereo) [Compound 23, (2R,3R)-rel-4H-2,3-dihydro-3,5,7-trihydroxy-2-(4-hydroxyphenyl)-8-(3-methyl-2-buten-1-yl)-1-benzopyran-4-one]: in data set [1], the “sample concentrations provoking prevention of virus-induced hemagglutination in viral HA assay” value is recorded as “no”. The values for the IC50 in data set [2] and in data set [7] were 24.7 ± 4.55 µM and 27 ± 3.24 µM, respectively. The “MIC in HA assay against S. pneumoniae DSM20566” value in [3] was determined as 31.6 ± 0.00 µM (≈ 11.3 µg/mL). The “sample concentrations provoking induction of erythrocyte lysis in bacterial HA assay” value in [4] is given as “no”. Also, the “sample concentrations provoking induction of erythrocyte lysis in viral HA assay” value in [5] is “no”. The CC50 at 72 h is greater than 100 µM in data set [6] and 69 ± 3.56 µM in [8].

Regarding `COc1ccc(C2CC(=O)c3c(O)cc(O)cc3O2)cc1O` (racemic) [Compound 10, (±)-hesperetin], in data set [1], the “sample concentrations provoking prevention of virus-induced hemagglutination in viral HA assay” value is “no”. Moreover, the IC50 in [2], in data set [7] and in [9] was greater than 100 µM in each case. Besides, the “sample concentrations provoking induction of erythrocyte lysis in bacterial HA assay” value in data set [4] is recorded as “no”. Also, in [5], the “sample concentrations provoking induction of erythrocyte lysis in viral HA assay” value is reported as “no”. For the same molecule, the CC50 in [6] and in [8] was greater than 100 µM each time.

On to `CC(C)=CCc1cc(C2CC(=O)c3ccc(O)cc3O2)ccc1O` (racemic) [Compound 18, (±)-abyssinone II], for which, in data set [1], the “sample concentrations provoking prevention of virus-induced hemagglutination in viral HA assay” value is listed as “no”. The IC50 is 25.9 ± 3.67 µM in data set [2], greater than 100 µM in [7] and 11.4 ± 3 µM in data set [9]. Besides, the “sample concentrations provoking induction of erythrocyte lysis in bacterial HA assay” value in [4] was “no”. In addition, the “sample concentrations provoking induction of erythrocyte lysis in viral HA assay” value in data set [5] is on record as “no”. The CC50 at 72 h was greater than 100 µM in data set [6] and 59.2 ± 15 µM in [8].

For `COc1cc([C@H]2Oc3cc([C@H]4Oc5cc(O)cc(O)c5C(=O)[C@@H]4O)ccc3O[C@@H]2CO)ccc1O` (racemic) [Compound 17, (±)-silybin], the “sample concentrations provoking prevention of virus-induced hemagglutination in viral HA assay” value in [1] (setting [10]) is recorded as “no”. Besides, the results for the IC50 in [2], in data set [7] and in [9] were greater than 100 µM, 9.18 ± 1.5 µM and greater than 100 µM, respectively. Further, the “sample concentrations provoking induction of erythrocyte lysis in bacterial HA assay” value in data set [4] is “no”. Besides, the “sample concentrations provoking induction of erythrocyte lysis in viral HA assay” value in data set [5] is given as “no”. Besides, the CC50 at 72 h in data set [6] and in [8] was greater than 100 µM throughout.

`COc1c(O)cc2c(c1O)C(=O)CC(c1ccccc1)O2` (centres unmarked) [Compound 8, 2,3-dihydro-5,7-dihydroxy-6-methoxy-2-phenyl-4H-1-benzopyran-4-one]: the “sample concentrations provoking prevention of virus-induced hemagglutination in viral HA assay” value in data set [1] (setting [10]) was “no”. The IC50 in data set [2], in data set [7] and in data set [9] was greater than 100 µM in each case. Besides, the “sample concentrations provoking induction of erythrocyte lysis in bacterial HA assay” value in data set [4] is on record as “no”. In addition, the “sample concentrations provoking induction of erythrocyte lysis in viral HA assay” value in [5] is “no”. The CC50 at 72 h in data set [6] and in data set [8] was greater than 100 µM each time.

Regarding `CC(C)=CC[C@]12Oc3cc(O)c([C@H]4C=C(C)C[C@H](c5ccc(O)cc5O)[C@H]4C(=O)c4ccc(O)cc4O)c(O)c3C(=O)[C@@]1(O)Oc1cc(O)ccc12` [Compound 2, sanggenon C], the “sample concentrations provoking prevention of virus-induced hemagglutination in viral HA assay” value in [1] lay in the range of 3.1 to 100 µM. Besides, the IC50 in data set [2] was 8.3 ± 0.7 µM; in [7], 9.18 ± 1.5 µM. Also, in data set [4] (human), the “sample concentrations provoking induction of erythrocyte lysis in bacterial HA assay” value is 31.6 to 100 µM. For the same molecule, the “sample concentrations provoking induction of erythrocyte lysis in viral HA assay” value in data set [5] (human) was in the range of 10 to 100 µM. Further, the CC50 amounted to 32.6 ± 9.07 µM in [6] and 51.7 ± 12.2 µM in data set [8].
